Values joined by “and” are separate entries in the source; they are usually repeats but may differ in a detail not shown here. Identical values can stand only once. Like-named read-outs stand apart in the source and are kept apart here.
Test: Phase I/IIa clinical PK of oral psilocin-d10, plasma, noncompartmental analysis (Cohorts 1-6)
Format: in vivo, human
Conditions: for AUC(0-inf): read-out: AUC0-inf Mean (SD)
Procedure: Phase I/IIa, Randomized, Double-Blind, Placebo-Controlled Study which assesses the safety, tolerability, pharmacokinetics, and pharmacodynamics of multiple ascending oral doses of psilocin-d10 in participants with and without MDD (ClinicalTrials.gov Identifier: NCT05385783). All subjects receiving study medication in Cohorts 1-6 received oral psilocin-d10 powder in solution (0.1M citric acid+Tang orange drink, 30 mL dose in a dose cup) and subjects receiving placebo received a similar volume of Tang orange drink without the psilocin-d10 study drug. All subjects receiving study medication in the relative bioavailability (BA) cohort received powder-filled capsules containing psilocin-d10 benzenesulfonate salt by ingestion with approximately 240 mL room temperature water, or oral psilocin-d10 powder in solution (0.1M citric acid+Tang orange drink, 30 mL dose in a dose cup) in a cross-over design. Psilocin-d10 for the powder in solution dosage form was manufactured by Patheon Pharma Services, with an isotopic purity of 79.89%. Psilocin-d10 benzenesulfonate salt for the powder-filled capsule dosage form was manufactured by Patheon Pharma Services, with an isotopic purity of 85.20%.
Cohorts 1, 4, 5, and 6 of the study was comprised of participants with MDD. Cohorts 2, 3, and the relative BA cohort of the study were comprised of normal healthy volunteers (NHV). […] MDD participants had been on a stable dose of antidepressant medication for at least one month prior to screening with an inadequate response to that antidepressant medication as judged by the Investigator, and continued to receive their prescribed antidepressant throughout the course of the study.
Cohort 1. For Cohort 1, 2 sentinel subjects were randomized and dosed, including 1 subject who received a psilocin-d10 1 mg oral dose and 1 subject who received a placebo dose. After the sentinel subjects were dosed, an additional 2 subjects were dosed, including a replacement subject for one of the sentinel subjects who withdrew consent and one additional subject. In total, four Cohort 1 subjects received a first dose of study medication on Day 1, and 3 subjects received a second dose of study medication on Day 22. For the first dose, 2 subjects received an active psilocin-d10 1 mg dose and 2 subjects received placebo. For the second dose, 3 subjects received an active psilocin-d10 1 mg dose.
Cohort 2. For Cohort 2, 4 subjects were randomized and dosed on Day 1 (2 subjects on one day, 2 subjects on the next day), including 3 subjects who received a psilocin-d10 3 mg oral dose and 1 subject who received a placebo dose. These same 4 subjects were again dosed on Day 8 (2 subjects on one day, 2 subjects on the next day), with all 4 subjects receiving a psilocin-d10 8 mg oral dose (note the actual washout was 11 days between doses).
Cohort 3. For Cohort 3 Day 1, 4 subjects were randomized and dosed on Day 1 (2 subjects on one day, 2 subjects on the next day), including 3 subjects who received a psilocin-do 8 mg oral dose and 1 subject who received a placebo dose. […] Another subject was dosed and left the study after the 2-hour PK sampling and has limited PK samples available for analysis from 0 to 2 hours—this subject's PK data has thus been excluded from the analysis presented hereinafter. For Cohort 3 Day 8, 3 subjects were dosed on Day 8 with a psilocin-d10 10 mg dose (2 sentinel subjects were dosed on one day, 1 non-sentinel subject was dosed on the next day).
Cohorts 4 and 5. For Cohorts 4 and 5, 12 participants each (24 participants total) were randomized in a 3:1 ratio to receive 12 mg of psilocin-d10 or matched placebo in a single dosing session on Day 1. Following a 21-day interval, all participants received a dose of 12 mg psilocin-d10 on Day 22 (second dose for participants originally randomized to psilocin-d10, first dose for participants randomized to placebo), and were followed to Day 42.
Cohort 6. […]

Question: Which “CL/F Mean (SD)” value (1 mg oral, Cohort 1 MDD, Day 1 and Day 22 pooled) does the source give for `[2H]C([2H])([2H])N(C([2H])([2H])[2H])C([2H])([2H])C([2H])([2H])c1c[nH]c2cccc(O)c12` [psilocin-d10, 3-(2-(bis(methyl-d3)amino)ethyl-1,1,2,2-d4)-1H-indol-4-ol] here?
Answer: 101.08 (18.94) L/h

Question: What about the “CL/F Mean (SD)” value (3 mg oral, Cohort 2 NHV, Day 1) of the same compound?
Answer: 85.22 (11.21) L/h

Question: And the “Cmax Mean (SD)” value (8 mg oral, Cohorts 2 and 3 NHV, Day 1 and Day 8 pooled, 2 subjects excluded)?
Answer: 15.00 (4.85) ng/ml and 15.00^3 ng/ml

Question: What about the “CL/F Mean (SD)” value (8 mg oral, Cohorts 2 and 3 NHV, pooled) of the same compound?
Answer: 97.56 (31.21) L/h

Question: And the “AUC0-24 Mean (SD)” value (8 mg oral, Cohorts 2 and 3 NHV, pooled, 2 subjects excluded)?
Answer: 83.98 (21.46) h*ng/mL and 83.98^3 h*ng/mL

Question: What about the “CL/F Mean (SD)” value (10 mg oral, Cohort 3 NHV, Day 8) of the same compound?
Answer: 104.7 (40.25) L/h

Question: What about the “CL/F Mean (SD)” value (12 mg oral, Cohort 4 MDD, Day 1 and Day 22) of the same compound?
Answer: 85.32 (35.41) L/h

Question: What about the “CL/F Mean (SD)” value (12 mg oral, Cohort 5 MDD, Day 1 and Day 22) of the same compound?
Answer: 91.95 (25.38) L/h

Question: What about the “CL/F Mean (SD)” value (12 mg oral, Cohorts 4 and 5 MDD, Day 1 and Day 22) of the same compound?
Answer: 88.72 (30.45) L/h

Question: What about the “CL/F Mean (SD)” value (16 mg oral, Cohort 6 MDD, all subjects incl. 3 with emesis) of the same compound?
Answer: 128.11 (83.50) L/h

Question: What about the “mean clearance (CL/F)” value (16 mg, 18 doses, no emesis) of the same compound?
Answer: ~107.2 L/h

Question: What about the “Observed Mean Cmax” value (16 mg, Cohort 6, N = 18, excluding 3 doses with vomiting postdose) of the same compound?
Answer: 20.73^2 ng/mL

Question: And the “fold increase in mean Cmax, 16 mg (18 doses, no emesis) compared to 12 mg” value (1.33-fold increase in dose)?
Answer: ~1.1 fold

Question: And the “fold increase in mean AUC, 12 mg compared to 8 mg” value (1.5-fold increase in dose)?
Answer: 1.7 to 1.8 fold

Question: And the “fold increase in mean Cmax, 12 mg compared to 8 mg” value (1.5-fold increase in dose)?
Answer: ~1.2 fold

Question: What about the “mean Cmax, fold higher, 8 mg dose compared to 3 mg dose” value (2.67-fold increase in dose) of the same compound?
Answer: 2.45 fold

Question: What about the “mean AUC0-24, AUClast and AUC0-inf, fold higher, 8 mg compared to 1 mg” value (8-fold increase in dose) of the same compound?
Answer: 8.1 to 8.3 fold

Question: And the “mean Cmax, fold higher, 8 mg dose compared to 1 mg dose” value (8-fold increase in dose)?
Answer: 8.6 fold

Question: And the “fold increase in mean AUC, 16 mg (18 doses, no emesis) compared to 12 mg” value (human, plasma, oral)?
Answer: ~1.1 fold

Question: And the “mean AUC0-24, AUClast and AUC0-inf higher for 10 mg compared to 8 mg” value (human, plasma, oral)?
Answer: ~20%

Question: What about the “mean AUC0-24, AUClast and AUC0-inf, fold higher, 3 mg compared to 1 mg” value (human, plasma, oral) of the same compound?
Answer: 3.4 to 3.5 fold

Question: And the “mean Cmax lower for 10 mg dose cohort compared to 8 mg dose cohort” value (human, plasma, oral)?
Answer: ~10%

Question: And the “mean Cmax, fold higher, 3 mg dose compared to 1 mg dose” value (human, plasma, oral)?
Answer: 3.5 fold

Question: What about the Cmax (human, plasma, oral, 8 mg, Cohort 2, Day 8, N = 4, read-out: Observed Mean Cmax) of the same compound?
Answer: 16.6 ng/mL

Question: And the half-life (human, plasma, oral, 8 mg, range of means for 1, 3 and 8 mg doses, read-out: elimination half-life, on average)?
Answer: 4.18 to 5.41 h

Question: What about the Vd/F (human, plasma, oral, 16 mg, 18 doses, no emesis, read-out: mean volume of distribution (Vz/F)) of the same compound?
Answer: ~834 L

Question: What about the AUC(0-t) (human, plasma, oral, 16 mg, Cohort 6, N = 18, excluding 3 doses with vomiting postdose, read-out: Observed Mean AUC0-24) of the same compound?
Answer: 165 ng·h/mL

Question: What about the Cmax (human, plasma, oral, 16 mg, Cohort 6, N = 18, excluding 3 doses with vomiting postdose, read-out: Observed Mean Cmax) of the same compound?
Answer: 20.7 ng/mL

Question: And the half-life (human, plasma, oral, 16 mg, as given in the text, read-out: mean elimination half-life (T1/2) (converted))?
Answer: 5.58 h

Question: And the Vd/F (human, plasma, oral, range of means, 1 to 10 mg doses, read-out: apparent volume of distribution (Vz/F), on average)?
Answer: 584 to 761 L

Question: What about the concentration at 2 h (human, plasma, oral, 10 mg, Cohort 3 Day 8, read-out: plasma psilocin-d10 concentration of one subject at 2 hours postdose) of the same compound?
Answer: 18.7 ng/mL

Question: And the concentration at 4 h (human, plasma, oral, 10 mg, Cohort 3 Day 8, set ~20% below the 2-hour value, read-out: estimated plasma psilocin-d10 concentration of one subject at 4 hours postdose (missed sample))?
Answer: 14.9 ng/mL

Question: And the AUC(0-t) (human, plasma, po, 1 mg, 1 mg oral, Cohort 1 MDD, Day 1 and Day 22 pooled, read-out: AUC0-24 Mean (SD))?
Answer: 10 ng·h/mL

Question: And the AUC(0-inf) (human, plasma, po, 1 mg, 1 mg oral, Cohort 1 MDD, Day 1 and Day 22 pooled)?
Answer: 10.2 ng·h/mL

Question: And the AUC(0-t) (human, plasma, po, 1 mg, 1 mg oral, Cohort 1 MDD, Day 1 and Day 22 pooled, read-out: AUClast Mean (SD))?
Answer: 10 ng·h/mL

Question: And the Cmax (human, plasma, po, 1 mg, 1 mg oral, Cohort 1 MDD, Day 1 and Day 22 pooled, read-out: Cmax Mean (SD))?
Answer: 1.69 ng/mL

Question: What about the Cmax (human, plasma, po, 1 mg, 1 mg oral, Cohort 1 MDD, Day 1 and Day 22 pooled, read-out: Cmax Median) of the same compound?
Answer: 1.7 ng/mL

Question: What about the half-life (human, plasma, po, 1 mg, 1 mg oral, Cohort 1 MDD, Day 1 and Day 22 pooled, read-out: T1/2 Mean (SD) (converted)) of the same compound?
Answer: 4.18 h

Question: What about the Vd/F (human, plasma, po, 1 mg, 1 mg oral, Cohort 1 MDD, Day 1 and Day 22 pooled, read-out: Vz/F Mean (SD)) of the same compound?
Answer: 608 L

Question: What about the AUC(0-t) (human, plasma, po, 3 mg, 3 mg oral, Cohort 2 NHV, Day 1, read-out: AUC0-24 Mean (SD)) of the same compound?
Answer: 34.5 ng·h/mL

Question: And the AUC(0-inf) (human, plasma, po, 3 mg, 3 mg oral, Cohort 2 NHV, Day 1)?
Answer: 35.6 ng·h/mL

Question: What about the AUC(0-t) (human, plasma, po, 3 mg, 3 mg oral, Cohort 2 NHV, Day 1, read-out: AUClast Mean (SD)) of the same compound?
Answer: 34.5 ng·h/mL

Question: What about the Cmax (human, plasma, po, 3 mg, 3 mg oral, Cohort 2 NHV, Day 1, read-out: Cmax Mean (SD)) of the same compound?
Answer: 5.91 ng/mL

Question: What about the Cmax (human, plasma, po, 3 mg, 3 mg oral, Cohort 2 NHV, Day 1, read-out: Cmax Median) of the same compound?
Answer: 5.87 ng/mL

Question: What about the half-life (human, plasma, po, 3 mg, 3 mg oral, Cohort 2 NHV, Day 1, read-out: T1/2 Mean (SD) (converted)) of the same compound?
Answer: 4.76 h

Question: What about the Vd/F (human, plasma, po, 3 mg, 3 mg oral, Cohort 2 NHV, Day 1, read-out: Vz/F Mean (SD)) of the same compound?
Answer: 584 L

Question: What about the Cmax (human, plasma, po, 8 mg, 8 mg oral, Cohorts 2 and 3 NHV, Day 1 and Day 8 pooled, 2 subjects excluded, read-out: Cmax Mean (SD)) of the same compound?
Answer: 15 ng/mL

From patent US20240293367A1, “METHODS OF TREATING DISORDERS WITH A […]” (Cybin IRL Limited, priority 2023, published 2024)
